Experiments:
Escherichia coli = test: AST with and without RNase, rRNA levels relative to control at 60 or 90 minutes; format: cell-based; conditions: susceptible E. coli isolates, 60 or 90 minutes at 37° C., RNase added to the growth medium
Method: Similar results have been observed for other Gram-negative bacteria such as Kiebsiella pneumoniae, Proteus mirabilis, and Pseudomonas aeruginosa using the same conditions and RNase concentrations as for E. coli.
Susceptible (S) and resistant (R) E. coli isolates were incubated in growth medium with ampicillin for 60 or 90 minutes at 37° C. with (+) and without (−) RNase.
Susceptible (S) and resistant (R) E. coli isolates were incubated in growth medium with cefazolin for 60 or 90 minutes at 37° C. with (+) and without (−) 1 μg/ml RNase.
Susceptible (S) and resistant (R) E. coli isolates were incubated in growth medium with ceftriaxone for 60 or 90 minutes at 37° C. with (+) and without (−) RNase.

K. pneumoniae = test: as above; format: cell-based; conditions: susceptible K. pneumoniae isolates, 60 or 90 minutes at 37° C., RNase added to the growth medium
Method: Susceptible (S) and resistant (R) K. pneumoniae isolates were incubated in growth medium with cefepime for 60 or 90 minutes at 37° C. with (+) and without (−) 1 μg/ml RNase.
Susceptible (S) and resistant (R) K. pneumoniae isolates were incubated in growth medium with ceftriaxone for 60 or 90 minutes at 37° C. with (+) and without (−) RNase.

CC1(C)S[C@@H]2[C@H](NC(=O)[C@H](N)c3ccccc3)C(=O)N2[C@H]1C(=O)O [ampicillin]
rRNA levels relative to control (growth medium without antibiotic) (Escherichia coli): significant reduction in rRNA

Cc1nnc(SCC2=C(C(=O)O)N3C(=O)[C@@H](NC(=O)Cn4cnnn4)[C@H]3SC2)s1 [cefazolin]
rRNA levels relative to control (growth medium without antibiotic) (Escherichia coli): significant reduction in rRNA

CO/N=C(\C(=O)N[C@@H]1C(=O)N2C(C(=O)[O-])=C(C[N+]3(C)CCCC3)CS[C@H]12)c1csc(N)n1 [cefepime]
rRNA levels relative to control (growth medium without antibiotic) (K. pneumoniae): significant reduction in rRNA

CO/N=C(\C(=O)N[C@@H]1C(=O)N2C(C(=O)O)=C(CSc3nc(=O)c(=O)[nH]n3C)CS[C@H]12)c1csc(N)n1 [ceftriaxone]
rRNA levels relative to control (growth medium without antibiotic) (K. pneumoniae): significant reduction in rRNA
rRNA levels relative to control (growth medium without antibiotic) (Escherichia coli): significant reduction in rRNA
